Source: PMC5733122, “Purification, Characterization, and Mode of Action of Pentocin JL-1, a Novel Bacteriocin Isolated from Lactobacillus pentosus, against Drug-Resistant Staphylococcus aureus” (BioMed Research International, 2017)

Assays:
[1] = system: MRSA GIM1.771; test: Agar-well diffusion test; format: cell-based, Staphylococcus aureus; details: pH 5.5
Description: The intestinal tracts of C. punctatum (grey carpet shark) were dissected and homogenized in 20 mL saline solution under sterile conditions and were then plated in serial dilutions in deMan, Rogosa, and Sharpe (MRS) medium. The plates were incubated aerobically at 30°C for 24 h. Several colonies were picked at random and incubated again in MRS broth. For screening for bacteriocin-producing strains, the agar-well diffusion test was used to detect antimicrobial activity in cell-free supernatants (filtered through a 0.22 μm Millipore filter) obtained by centrifugation (10,000g, 30 min, 4°C) after 18, 36, 60, and 72 h incubation. The Gram-positive strain MRSA GIM 1.771 and the Gram-negative strain Escherichia coli O157:H7 GIM 1.707 were used as indicator strains. Before the experiments, the indicator strains were grown to 10^6 CFU/mL. Then, 1 mL of the culture was mixed with 100 mL soft agar medium and poured onto individual Petri dishes. Subsequently, 8 mm diameter wells were punched onto the plates, and each well was filled with 100 μL of the cell-free supernatants under sterile conditions. The plates were incubated overnight at their respective optimum temperatures, and the clear zones of inhibition were measured in diameter and indicated the presence of antimicrobial activity. In our study, all bacteria culture media and chemical reagents were supplied by Sigma-Aldrich (USA).
The agar-well diffusion test as described previously was used to detect the antimicrobial activity of the purified pentocin JL-1 (15 μg/mL, pH 5.5). LAB strains were grown in MRS broth at 30°C for 16 h. Other Gram-positive indicator strains were grown in Tryptone Soy Broth (TSB) medium at 37°C and the Gram-negative indicator strains were grown in Luria-Bertani broth medium at 37°C.
(§1) The residual antibacterial activities of the above samples were calculated using the agar-well diffusion test with MRSA GIM 1.771 as the indicator strain. […] Lyophilized pentocin JL-1 dissolved in 0.05% (w/v) acetic acid at 15 μg/mL with pH 5.5 was used as a control in all assays.

[2] = system: MRSA GIM 1.771; test: Minimal inhibitory concentration (MIC), 96-well microtiter plates; format: cell-based, Staphylococcus aureus; details: around 2 × 10^6 CFU/mL, 37°C, 24 h, 100% growth inhibition by absorbance at 540 nm, triplicate
Description: Additionally, the minimal inhibitory concentration (MIC) of pentocin JL-1 against MRSA GIM 1.771 was tested. Overnight culture of MRSA GIM 1.771 with the concentration of around 2 × 10^6 CFU/mL was collected and 50 μL of each was grown in 96 well-microtiter plates (Bio-Rad, USA) with different concentrations of pentocin JL-1, ranging from 50 ng/mL to 15 μg/mL, at 37°C for 24 h. Each concentration was done in triplicate. The MIC represents the bacteriocin concentration at which 100% of growth is inhibited measured by the absorbance at 540 nm.

[3] = molecular target: T1, proteinase K (Parengyodontium album, UniProt P06873); test: Enzymatic sensitivity, residual antibacterial activity; format: in vitro ADME; details: 1 h
T1 construct: purchased Sigma-Aldrich
T1 sequence (P06873 106-384): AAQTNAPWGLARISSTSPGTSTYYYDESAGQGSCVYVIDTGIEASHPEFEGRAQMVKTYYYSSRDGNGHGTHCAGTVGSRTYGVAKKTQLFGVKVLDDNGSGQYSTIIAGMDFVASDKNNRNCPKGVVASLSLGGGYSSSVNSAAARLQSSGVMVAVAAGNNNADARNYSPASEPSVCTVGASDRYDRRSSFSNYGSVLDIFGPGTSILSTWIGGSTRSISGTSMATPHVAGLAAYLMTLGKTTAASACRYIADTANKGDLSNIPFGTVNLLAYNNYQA
Description: […] After incubation for 1 h, the bacteriocin-enzyme mixture was boiled for 5 min to inactivate the enzymes.
as §1

[4] = system: alkaline protease; test: as above; format: in vitro ADME; details: 1 h
Description: (§2) To determine enzymatic sensitivity, lyophilized purified pentocin JL-1 dissolved in 0.05% (w/v) acetic acid at 15 μg/mL was treated with the following enzymes at 75 μg/mL under their respective optimum pH and temperatures: proteinase K (pH 7.5, 37°C), trypsin (pH 8.0, 37°C), pepsin (pH 2.0, 37°C), and alkaline protease (pH 8.6, 50°C) (all from Sigma-Aldrich, USA). After incubation for 1 h, the bacteriocin-enzyme mixture was boiled for 5 min to inactivate the enzymes.
as §1

[5] = molecular target: T2, pepsin (Sus scrofa, UniProt P00791); test: as above; format: in vitro ADME; details: Pepsin 75 μg/mL (pH 1.8, 37°C), 1 h, pentocin JL-1 15 μg/mL
T2 construct: purchased Sigma-Aldrich
T2 sequence (P00791 60-385): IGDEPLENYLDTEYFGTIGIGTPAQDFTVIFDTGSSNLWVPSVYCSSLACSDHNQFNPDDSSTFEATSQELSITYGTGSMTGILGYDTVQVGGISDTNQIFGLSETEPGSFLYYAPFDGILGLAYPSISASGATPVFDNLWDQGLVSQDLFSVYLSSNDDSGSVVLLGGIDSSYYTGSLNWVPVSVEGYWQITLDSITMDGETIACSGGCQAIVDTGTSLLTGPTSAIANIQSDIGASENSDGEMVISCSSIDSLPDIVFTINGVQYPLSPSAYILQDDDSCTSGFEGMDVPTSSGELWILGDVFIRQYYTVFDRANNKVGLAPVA
Description: as §2, §1

[6] = system: MRSA GIM 1.771 cells; test: Transmembrane pH gradient (ΔpH), BCECF AM fluorescence; format: cell-based, Staphylococcus aureus; details: 1x MIC and 2x MIC, compared with 1% Triton X-100, 400 s
Description: ΔpH was monitored by the fluorescent pH probe 2′,7′-bis-(2-carboxyethyl)-5-(and-6)-carboxyfluorescein, acetoxymethyl ester (BCECF AM) (Beyotime, China). MRSA GIM 1.771 cells were grown to the exponential phase in 50 mL TSB culture medium, harvested, washed twice with 50 mL 5 mM HEPES buffer at 4°C, and resuspended in 5 mL of the same buffer for incubation on ice for 1 h. Subsequently, the 1 μM BCECF AM pH probe was added and the solution was incubated at 37°C for 1 h in the dark. Then 1 mL of the incubated solution was added to a fluorescence cuvette together with a final concentration of 1x, 2x, and 3x MIC of pentocin JL-1, respectively. Acetic acid (0.05%, w/v) was used as a negative control and 1% (w/v) Triton X-100 was used as a positive control. To the control, an equivalent volume of 3x MIC of pentocin JL-1 was added. The fluorescence intensity was monitored at 50 s intervals for 400 s immediately after mixing at Ex 488 nm and Em 535 nm using an F-4600 spectrofluorometer (Hitachi, Japan).

[7] = system: MRSA GIM 1.771; test: Growth curve, OD600; format: cell-based, Staphylococcus aureus; details: 1x MIC added after 6 h (exponential phase), TSB, 37°C, 24 h
Description: The bacteriostatic or bactericidal mode of action of pentocin JL-1 was tested as described previously by Zhu et al. with some modifications. MRSA GIM 1.771 was cultivated to the exponential phase in 100 mL of TSB culture medium. The lyophilized purified pentocin JL-1 dissolved in 0.05% (w/v) acetic acid was added to the cultures at a final concentration of 1x MIC and the same volume of 0.05% (w/v) acetic acid was added to the aforementioned media as a control. Samples were incubated at 37°C and bacterial suspensions were taken each hour for 24 h, and the absorbance was measured at OD600. In addition, the viable cell counts on TSB agar medium after the addition of 1x MIC, 2x MIC, and 3x MIC of pentocin JL-1 were also quantified every 10 min for 1 h.

VAKVAR [pentocin JL-1, novel bacteriocin produced by Lactobacillus pentosus JL-1, purified by four-step chromatography, molecular mass 2987.23 Da, cationic and hydrophobic peptide]
Residual inhibitory activity (%) ([1]; Control: untreated pentocin JL-1 15 μg/mL in 0.05% (w/v) acetic acid): 100.00% | Residual inhibitory activity (inhibition zone diameter, mm) ([1]; Control: untreated pentocin JL-1 15 μg/mL in 0.05% (w/v) acetic acid, mean ± SD, triplicate): 23.9 ± 0.7 mm | Antimicrobial activity ([1]; agar-well diffusion, purified pentocin JL-1 15 μg/mL, inhibition zone diameter class incl. 8 mm well): +++ (+++: 20–25) | MIC [2]: 7.5 µg/mL | Residual inhibitory activity (inhibition zone diameter, mm) ([3]; Proteinase K 75 μg/mL (pH 7.5, 55°C), then boiled 5 min, pentocin JL-1 15 μg/mL, agar-well diffusion vs MRSA GIM 1.771, mean ± SD, triplicate): 17.3 ± 1.2 mm | Residual inhibitory activity (%) ([3]; Proteinase K 75 μg/mL (pH 7.5, 55°C), pentocin JL-1 15 μg/mL, vs MRSA GIM 1.771, relative to control): 72.38^∗ % | inhibitory action after enzyme treatment ([3]; proteinase K 75 μg/mL, p < 0.05): significantly reduced | Residual inhibitory activity (inhibition zone diameter, mm) ([4]; Alkaline protease 75 μg/mL (pH 8.6, 50°C), then boiled 5 min, pentocin JL-1 15 μg/mL, agar-well diffusion vs MRSA GIM 1.771, mean ± SD, triplicate): 0.0 ± 0.0 mm | Residual inhibitory activity (%) ([4]; Alkaline protease 75 μg/mL (pH 8.6, 50°C), pentocin JL-1 15 μg/mL, vs MRSA GIM 1.771, relative to control): 0.00^∗ % | inhibitory action after enzyme treatment ([4]; alkaline protease 75 μg/mL): completely abolished | Residual inhibitory activity (inhibition zone diameter, mm) ([5]; then boiled 5 min, agar-well diffusion vs MRSA GIM 1.771, mean ± SD, triplicate): 0.0 ± 0.0 mm | Residual inhibitory activity (%) ([5]; vs MRSA GIM 1.771, relative to control): 0.00^∗ % | extent of ΔpH dissipation [6]: incompletely dissipated | OD600 values after addition [7]: nearly stable
